Reference: PubChem BioAssay AID504553 (Southern Research Specialized Biocontainment Screening …, 2011)

Test system: MAGI-CCR5 cells, HIV-1 Ba-L, beta-gal luminescence, 48 h
Test: inhibitors of R5 HIV-1 replication in MAGI cells – MAGI-CCR5 cells, HIV-1 Ba-L, 2% serum, set 4, dose response (AID 504553)

SMILES | IC50
COc1ccc(Cn2c(O)cc3nn(-c4nc5ccccc5s4)c(=O)c-3c2C)cc1 | 29.2 µM
Cc1c2c(=O)n(-c3nc4ccccc4s3)nc-2cc(O)n1Cc1cccs1 | 7.43 µM
Cc1c2c(=O)n(-c3nc4ccccc4s3)nc-2cc(O)n1C1CC1 | 6.99 µM
Cc1c2c(=O)n(-c3nc4ccccc4s3)nc-2cc(O)n1Cc1ccc(F)cc1 | 3.53 µM
COc1ccc(CCn2c(O)cc3nn(-c4nc5ccccc5s4)c(=O)c-3c2C)cc1 | 4.64 µM
COc1ccccc1Cn1c(O)cc2nn(-c3nc4ccccc4s3)c(=O)c-2c1C | 19.6 µM
Cc1c2c(=O)n(-c3nc4ccccc4s3)nc-2cc(O)n1CCc1cccs1 | 19 µM

More lines, in order of falling IC50, values ahead:

IC50 | SMILES
23 µM | Cc1c2c(=O)n(-c3nc4ccccc4s3)nc-2cc(O)n1CCc1ccc(O)cc1
9.51 µM | Cc1c2c(=O)n(-c3nc4ccccc4s3)nc-2cc(O)n1Cc1ccncc1
9.35 µM | Cc1c2c(=O)n(-c3nc4ccccc4s3)nc-2cc(O)n1CCC(C)C
9.28 µM | Cc1c2c(=O)n(-c3nc4ccccc4s3)nc-2cc(O)n1Cc1ccccc1
6.07 µM | Cc1c2c(=O)n(-c3nc4ccccc4s3)nc-2cc(O)n1Cc1cccnc1
3.39 µM | Cc1c2c(=O)n(-c3nc4ccccc4s3)nc-2cc(O)n1Cc1ccccc1Cl
